From patent US6365734B1, “Cucurbituril derivatives, their preparation methods and uses” (Pohang University of Science and Technology Foundation, priority 1999, dated 2002) come the findings set out here.

The nature of test [1]: Binding constant by microcalorimeter (VP-ITC). The following applies: water/formic acid 1:1 by volume, 1.0 mM host. The procedure: Distilled water and formic acid were mixed in a ratio of 1:1: by volume. Next, 1.0 mM of cucurbit[5]uril derivative was prepared with the diluted formic acid. 20.0 mM of aqueous solution containing ammonium ions, and positive ions of alkaline metals, such as lithium, sodium and potassium, was prepared. Then, the binding constants of the cucurbit[5]uril derivative with these ions were measured using a microcalorimeter (VP-ITC, manufactured by MicroCal). As a result, the cucurbit[5]uril derivative has a binding constant of 5.4×10^3M^−1 with ammonium ions, 3.3×10^2M^−1 with positive lithium ions, 4.5×10^3M^−1 with positive sodium ions, and 2.6×10^4M^−1 with positive potassium ions. The cucurbit[5]uril derivative can selectively bind with alkali metal ions, as well as with ammonium ions. The result confirms that cucurbituril derivatives can be used as ion sensors.

Test [2] can be described thus: Ternary complex formation, amino acid sensing (NMR). The class given is binding. The following applies: methylviologen, tyrosine and host, D2O, heated. The procedure:
5.0 mM of methylviologendichloride solution, and 5.0 mM of tyrosine solution were prepared using D2O solvent. 0.25 ml of each solution was mixed with 2.1 mg of cucurbit[8]uril. Next, the mixture was heated until the color changed into yellow.

Assay in test [3]: as above
The class given is binding. The following applies: methylviologen, tryptophan and host, D2O, heated. The method, then:
5.0 mM of methylviologendichloride solution, and 5.0 mM of tryptophan solution were prepared using D2O solvent. 0.25 ml of each solution was mixed with 2.1 mg of cucurbit[8]uril. Next, the mixture was heated until the color changed into red.

A short description of test [4]: Complex formation with herbicide (NMR). The following applies: methylviologen and host, D2O. The format is binding. The procedure:
Methylviologendichloride (so-called paraquat), a herbicide, was used. 5.0 mM of mehylbiologendichloride solution was prepared with D2O solvent. Next, cucurbit[8]uril was added to the solution.

Test [5] in a line: Inclusion complex formation in water. The class given is binding. The following applies: guest cyclen, heating then slow cooling. The procedure:
120.0 mg of cyclen tetrahydrochloride ([…] tetrahydrochloride) and 100.0 mg of cucurbit[8]uril were dissolved in water.

Test [6] in a line: Host-guest complex formation in water (NMR). The class given is binding. The following applies: guest 2,6-Bis(4,5-dihydro-1H-imidazol-2-yl)naphthalene dihydrochloride. The procedure: 5.80 mg of 2,6-Bis(4,5-dihydro-1H-imidazol-2-yl)naphthalene dihydrochloride and 5.0 mg of cucurbit[8]uril were dissolved in water.
4.35 mg of 2,6-Bis(4,5-dihydro-1H-imidazol-2-yl)naphthalene dihydrochloride and 5.0 mg of cucurbit[7]uril were dissolved in water.

Test [7] in a line: Complex formation with anti-cancer drug, drug carrier test (NMR). The format is binding. The following applies: in water. The procedure: The following example is for investigating the function of the cucurbituril derivatives obtained in Synthesis Examples 1 through 10, as a drug carrier. In the following example, cisplatin, an anti-cancer drug, was used.
2.0 mg of Cis-dichloroethylenediamine platinum (II) and 2.0 mg of cucurbit[8]uril were dissolved in water.

Test [8] is described as follows: Ternary complex formation, nucleic acid base sensing (NMR). The following applies: methylviologen, thymine and host, D2O, heated. The class given is binding. The procedure: 5.0 mM of methylviologendichloride solution, and 5.0 mM of thymine solution were prepared using D2O solvent. 0.25 ml of each solution was mixed with 2.1 mg of cucurbit[8]uril. Next, the mixture was heated until the color changed into yellow.

The nature of test [9]: Inclusion complex formation in water. The format is binding. The following applies: guest cyclam, heating then slow cooling. The method, then:
13.0 mg of cyclam tetrahydrochloride (1,4,8,11-tetraazacyclotetradecane tetrahydrochloride) and 10.0 mg of cucurbit[8]uril were dissolved in water.

Test [10] in a line: Organic dye removal from water, UV absorption of filtrate. The procedure:
30 mg of organic dye, Direct Red 5B (commercially available from Ciba-Geigy Co.) was dissolved in 150 ml of water to prepare an organic dye solution. To half the organic dye solution, 150 mg of cucurbit[7]uril was added and stirred for 30 minutes.
The precipitate was filtered, and UV absorption spectra were measured at λmax=510 nm on the filtrate and the remaining half of the organic dye solution which was not treated with the cucurbut[7]uril.
R=UV absorption intensity of the dye solution treated with cucurbit[7]uril ×100/UV absorption intensity of the dye solution before the treatment with cucurbit[7]uril.
The following dyes were used: Reactive Blue HE-G (produced by Kyung-In Co.), Direct Solophenyl Violet 4BL (produced by Ciba-Geigy Co.), Reactive Navy Blue HE-R 150 (produced by Kyung-In Co.), Disperse Yellow E-3 (produced by LG Co.), Disperse T/Q Blue S-GL (produced by LG Co.) and Orange TGL (produced by Ciba-Geigy Co.).

The nature of test [11]: Inclusion complex formation in water. The class given is binding. The following applies: guest 1-aminoadamantane, addition of methanol. The procedure: 24.2 mg of 1-aminoadanmatane hydrochloride and 50.0 mg of cucurbi[7]uril were dissolved in water.

For the molecule `O=C1N2CN3C(=O)N4CN5C(=O)N6CN7C(=O)N8CN9C(=O)N%10CN1C1C2N2CN%11C(=O)N(CN%12C(=O)N(CN%13C(=O)N(CN%14C(=O)N(CN1C2=O)C%10C9%14)C8C7%13)C6C5%12)C4C3%11` (stereo not shown) [cucurbit[5]uril], in [1], the “binding constant with ammonium ions” value was 5400 M⁻¹, the “binding constant with positive lithium ions” value came to 330 M⁻¹, the “binding constant with positive potassium ions” value was found to be 26000 M⁻¹ and the “binding constant with positive sodium ions” value was found to be 4500 M⁻¹.

Turning to `O=C1N2CN3C(=O)N4CN5C(=O)N6CN7C(=O)N8CN9C(=O)N%10CN%11C(=O)N%12CN%13C(=O)N%14CN%15C(=O)N%16CN1C1C2N2CN%17C(=O)N(CN%18C(=O)N(CN%19C(=O)N(CN%20C(=O)N(CN%21C(=O)N(CN%22C(=O)N(CN%23C(=O)N(CN1C2=O)C%16C%15%23)C%14C%13%22)C%12C%11%21)C%10C9%20)C8C7%19)C6C5%18)C4C3%17` (stereo not shown) [cucurbit[8]uril], the “complex formation and stoichiometry” value in test [2] is given as “quantitative formation of a 1:1:1 complex”; in test [3] it was “quantitative formation of a 1:1:1 complex”; in test [4], “quantitative formation of a 1:1 complex”; in test [8], “quantitative formation of a 1:1:1 complex”. The inclusion complex formation entry in [5] and in test [9] was “produced an inclusion complex” in each case. Further, in [6], the “host-guest complex formation and stoichiometry” value is listed as “quantitative formation of a 1:2 host-guest complex”. Moreover, in [7], the “complex formation and stoichiometry (platinum compound : host)” value is on record as “quantitative formation of a 2:1 complex”.

With cucurbit[7]uril, the R in test [10] (Direct Red 5B, 510 nm, R = intensity after treatment ×100 / intensity before) is recorded as 1.7%; in test [10] (Direct Solophenyl Violet 4BL, 546 nm, R = intensity after ×100 / before), 1.3%; in test [10] (Disperse T/Q Blue S-GL 200, 776 nm, R = intensity after ×100 / before) it was 0.8%; in test [10] (Disperse Yellow E-3, 429 nm, R = intensity after ×100 / before) it was 3.0%; in test [10] (Orange TGL, 419 nm, R = intensity after ×100 / before), 5.4%; in test [10] (Reactive Blue HE-G, 626 nm, R = intensity after ×100 / before), 0.3%. Also, the R in test [10] (Reactive Blue HE-G, 662 nm, R = intensity after ×100 / before) is on record as 0.3%; in [10] (Reactive Navy Blue HE-R 150, 609 nm, R = intensity after ×100 / before), 0.6%. Also, the “host-guest complex formation and stoichiometry” value in test [6] is recorded as “quantitative formation of a 1:1 host-guest complex”. Also, the inclusion complex formation entry in test [11] is “produced an inclusion complex”.
